Source: publication PMC6351529, “Novel carboxylate-based glycolipids: TLR4 antagonism, MD-2 binding and self-assembly properties” (Scientific Reports, 2019)

Tests used:
[1] = design: method as in PMID 24339336; conditions: cited from earlier work
human MD-2 (hMD-2) = target: T1, human MD-2 (hMD-2) (Homo sapiens, UniProt Q9Y6Y9); experiment: Surface plasmon resonance (SPR) on immobilized hMD-2; conditions: 1:1 Langmuir binding model, 25 °C
T1 construct: made in house; host or cells: Pichia pastoris
T1 sequence (Q9Y6Y9 19-160): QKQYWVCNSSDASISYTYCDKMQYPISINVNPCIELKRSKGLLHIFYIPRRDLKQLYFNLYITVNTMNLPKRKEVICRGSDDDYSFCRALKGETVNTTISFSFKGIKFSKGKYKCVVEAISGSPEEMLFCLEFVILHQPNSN
Procedure: SPR experimental curve optimal fitting was obtained by assuming 1:1 ligand/MD-2 binding stoichiometry.
The binding affinity of the compounds to recombinant hMD-2 was determined using a Biacore X100 with an NTA sensor chip (Biacore, GE Healthcare, Uppsala, Sweden). Briefly, 0.5 μM hMD-2 (in 50 mM TRIS, 150 mM NaCl, 0.5% Tween 20, pH 7.5) was immobilized onto the sensor chip previously activated with 1-min. pulse of 10 mM NiSO4. First flow cell was used as a reference surface to control non-specific binding. Both flow cells were injected with the analyte (in PBS, 5% DMSO, 5% EtOH, pH 7.5) at a flow rate of 10 μL/min at 25 °C in increasing concentrations. The data were analyzed with Biacore Evaluation software. KD values were calculated by global fitting of the equilibrium binding responses from various concentrations of analytes using a 1:1 Langmuir binding model.

human TLR4 = target: T2, human TLR4 (Homo sapiens, UniProt O00206+Q9Y6Y9); experiment: Inhibition of LPS-stimulated TLR4 activation in HEK293-Blue hTLR4 cells (SEAP reporter); assay type: cell-based; conditions: LPS 100 ng/mL, 15 min pre-incubation, 16 h, serum-free DMEM
T2 construct: host or cells: HEK-Blue hTLR4 (HEK293)
Excerpt: Synthetic monosaccharides were screened for their capacity to activate or inhibit LPS-stimulated TLR4 activation in HEK293-Blue hTLR4 cells. HEK293-Blue hTLR4 cells are HEK cells transfected in order to express the human receptors involved in LPS detection process (TLR4, MD-2 and membrane-bound CD14) and an inducible SEAP (secreted embryonic alkaline phosphatase) reporter gene placed under the control of NF-kB and AP-1-transcription factors. Activation of the MyD88-dependent TLR4 pathway promotes the production and secretion of SEAP in the cell culture media, which can be easily quantified.
SEAP levels in cell culture media were quantified after 16 hours as indicator of TLR4 activation. Data were normalized to stimulation with LPS alone and fitted to a sigmoidal 4 parameter logistic equation to obtain dose-effect curves (left panel). […] Briefly, cells were cultured in DMEM high glucose medium supplemented with 10% fetal bovine serum (FBS), 2 mM glutamine, antibiotics and 1 × HEK-Blue Selection (InvivoGen). Cells were detached using a cell scraper, counted and seeded in a 96-well multiwell plate at a density of 4 × 10^4 cells per well. […] For the antagonism evaluation, cells were stimulated with LPS (100 ng/mL, E. coli O55:B5, Sigma-Aldrich) after compounds pre-treatment and incubated for 16 hours as above. The SEAP-containing supernatants were collected and incubated with para-nitrophenyl phosphate (pNPP) for 2−4 h in the dark at room temperature. The wells optical density was determined using a microplate reader (labtech LT-4000) set to 405 nm.

[2] = system: TLR4 signaling in RAW 264.7-Blue cells; experiment: LPS-induced TLR4 signaling in RAW 264.7-Blue cells (SEAP reporter, QUANTI-Blue); assay type: cell-based, murine
Procedure: To characterize the effect of synthetic compounds FP13-17 on cells naturally expressing TLR4, we used the murine macrophage RAW 264.7-Blue cell line, which are murine RAW 264.7 macrophages with chromosomal integration of SEAP reporter construct described in the previous section.
Figure 8 Inhibition of LPS-induced TLR4 signaling in RAW 264.7-Blue cells. […] SEAP reporter levels in the cell supernatant were determined by QuantiBlue Assay 24 h later. Error bars represent the standard deviation of the mean of technical triplicates. The graph is representative of at least three independent experiments.
Murine RAW 264.7-Blue cells (Invivogen) derived from the murine RAW 264.7 macrophages and stably expressing an NF-κB-inducible secreted alkaline phosphatase (SEAP) reporter gene were cultured in Dulbecco’s modified Eagle’s medium (DMEM), supplemented with 10% Fetal bovine serum (FBS), L-Glutamine (2 mM) and sodium pyruvate (0.4 mM), in the presence of selection antibiotic Zeocin (200 μg/mL). E. coli O111:B4 LPS was purchased from Invivogen. Bovine serum albumin (BSA) was purchased from Sigma-Aldrich. Compounds FP13-17 were reconstituted in DMSO/ethanol to provide a 10 mM stock solution. […] C57BL6/J mice were obtained from Janvier. […]
[…] 24 h later cell supernatants were analyzed for SEAP production by the QUANTI-Blue Assay (Invivogen).

C57BL/6 mice [3] = experiment: LPS-induced serum TNFα in mice, compound i.p.; assay type: in vivo, mouse; conditions: 200 µg i.p., LPS 30 min later, serum after 4 h
Procedure: To further investigate whether carboxylate-based lipid A mimetics are able to inhibit LPS-induced signaling in vivo, we injected C57BL/6 mice i.p. with 200 µg of compound FP13 followed by the LPS injection 30 min later. […] The reason for this was unclear and we hypothesized poor distribution and absorption of the compound upon i.p. injection.
C57BL/6 mice were injected i.p. with 200 µg FP13. 30 min later, the mice were i.p. injected with 150 µg of Salmonella enterica LPS, or vehicle and PBS as controls. Mice were sacrificed 4 h later and serum was collected. Serum TNF concentration was determined by Luminex-based Bio-Plex Multiplex system. Error bars represent the standard deviation of the mean.

C57BL/6 mice [4] = experiment: LPS-induced lung neutrophilia in mice, intratracheal administration; assay type: in vivo, mouse; conditions: 45 µg i.t. with 1 µg LPS, BAL after 16 h
Procedure: We therefore also explored the antagonistic capacity of FP13 in a different in vivo model, where LPS and FP13 were both administered locally in the lungs. Intratracheal (i.t.) instillation of LPS is known to cause an acute inflammatory response in mice, characterized by transient infiltration of neutrophils into the airways[57],[58].
PBS and vehicle were administered as controls. Mice were sacrificed 16 h later and neutrophilia in the BAL fluid was measured by flow cytometry. Error bars represent the standard deviation of the mean.

T2 sequence (O00206 24-839, one chain of several): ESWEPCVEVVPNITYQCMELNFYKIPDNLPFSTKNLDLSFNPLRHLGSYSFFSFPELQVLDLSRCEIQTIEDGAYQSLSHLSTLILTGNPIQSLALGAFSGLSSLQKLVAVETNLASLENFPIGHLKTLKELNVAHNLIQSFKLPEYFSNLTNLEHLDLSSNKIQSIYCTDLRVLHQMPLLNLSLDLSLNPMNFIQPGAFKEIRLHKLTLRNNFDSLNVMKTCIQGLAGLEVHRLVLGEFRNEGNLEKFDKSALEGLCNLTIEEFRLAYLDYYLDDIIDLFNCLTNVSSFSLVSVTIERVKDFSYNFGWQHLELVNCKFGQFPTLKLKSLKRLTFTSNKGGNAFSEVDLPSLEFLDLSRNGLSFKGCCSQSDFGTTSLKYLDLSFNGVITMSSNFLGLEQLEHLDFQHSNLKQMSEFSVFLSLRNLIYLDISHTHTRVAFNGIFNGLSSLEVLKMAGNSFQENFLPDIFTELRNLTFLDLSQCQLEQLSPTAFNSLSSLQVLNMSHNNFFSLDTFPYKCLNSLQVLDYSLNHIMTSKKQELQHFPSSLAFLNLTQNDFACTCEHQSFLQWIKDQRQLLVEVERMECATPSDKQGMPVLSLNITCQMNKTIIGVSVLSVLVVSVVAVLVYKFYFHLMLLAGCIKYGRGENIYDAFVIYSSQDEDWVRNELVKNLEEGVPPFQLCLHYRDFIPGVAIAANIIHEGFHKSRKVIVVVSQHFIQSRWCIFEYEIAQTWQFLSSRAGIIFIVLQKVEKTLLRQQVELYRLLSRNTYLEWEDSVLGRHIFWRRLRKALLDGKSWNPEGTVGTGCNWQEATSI

Row | SMILES | Kd (human MD-2 (hMD-2)) [µM] | IC50 (human TLR4) [µM] | CMC [1] | antagonistic activity in presence of serum ([2]; DMEM supplemented with 10% FBS) | antagonistic activity in presence of BSA ([2]; serum-free with 4 or 20 mg/mL BSA) | effect on LPS-induced serum TNFα levels (C57BL/6 mice [3]) | effect on LPS-induced neutrophil infiltration into the airways (C57BL/6 mice [4])
1 | CCCCCCCCCCCCCC(=O)N[C@H]1[C@@H](OP(=O)(O)O)O[C@H](CO)[C@@H](OP(=O)(O)O)[C@@H]1OC(=O)CCCCCCCCCCCCC [FP7] | – | – | about 9 µM | – | – | – | –
2 | CCCCCCCC/C=C\CCCCCCCC(=O)N[C@H]1[C@H](OC(=O)CCC(=O)O)O[C@H](CO)[C@@H](OC(=O)CCC(=O)O)[C@@H]1OC(=O)CCCCCCC/C=C\CCCCCCCC [FP13] | 9 | 5.91 | – | completely neutralized | strongly decreased | did not affect | failed to suppress
3 | CCCCC/C=C\C/C=C\CCCCCCCC(=O)N[C@H]1[C@H](OC(=O)CCC(=O)O)O[C@H](CO)[C@@H](OC(=O)CCC(=O)O)[C@@H]1OC(=O)CCCCCCC/C=C\C/C=C\CCCCC [FP14] | 35 | 4.35 | – | – | – | – | –
4 | CCCCCCCC/C=C\CCCCCCCC(=O)N[C@H]1[C@H](OC(=O)CCC(=O)O)O[C@H](CO)[C@@H](OC(=O)CCC(=O)O)[C@@H]1OC(=O)CCCCCCCCCCCCC [FP15] | 14 | 3.5 | – | – | – | – | –

Continued, in another order:

Row | Kd (human MD-2 (hMD-2)) [µM] | IC50 (human TLR4) [µM] | SMILES | CMC [1] | antagonistic activity in presence of serum ([2]; DMEM supplemented with 10% FBS) | antagonistic activity in presence of BSA ([2]; serum-free with 4 or 20 mg/mL BSA) | effect on LPS-induced serum TNFα levels (C57BL/6 mice [3]) | effect on LPS-induced neutrophil infiltration into the airways (C57BL/6 mice [4])
5 | 21 | 6.61 | CCCCC/C=C\C/C=C\CCCCCCCC(=O)N[C@H]1[C@H](OC(=O)CCC(=O)O)O[C@H](CO)[C@@H](OC(=O)CCC(=O)O)[C@@H]1OC(=O)CCCCCCCCCCCCC [FP16] | – | – | – | – | –
6 | 12 | 2.7 | CCCCCCCCCCCCCC(=O)N[C@H]1[C@H](OC(=O)CCC(=O)O)O[C@H](CO)[C@@H](OC(=O)CCC(=O)O)[C@@H]1OC(=O)CCCCCCCCCCCCC [FP17] | – | – | – | – | –
